The numbers were not newly measured in patent publication US12558321B2, “Pharmaceutical formulation” (CIPLA LIMITED, priority 2018, dated 2026), which cites them from elsewhere.

Regarding `COC(=O)c1ccc2c(c1)NC(=O)/C2=C(\Nc1ccc(N(C)C(=O)CN2CCN(C)CC2)cc1)c1ccccc1` [Nintedanib], the “solubility at neutral conditions” value (neutral conditions) is given as “poor solubility”. Further, the solubility in water result (water) is listed as “slightly soluble in water”.
